Assays:
CabPB = CabPB (Streptococcus mutans, UniProt Q8DSR3); test: DRaCALA, […]-labelled c-di-AMP on nitrocellulose; type: binding
CabPA = CabPA (Streptococcus mutans, UniProt Q8DT33); test: DRaCALA, […]-labelled c-di-AMP on nitrocellulose; type: binding

Structure (SMILES): Nc1ncnc2c1ncn2[C@@H]1O[C@@H]2COP(=O)(O)O[C@H]3[C@@H](O)[C@H](n4cnc5c(N)ncnc54)O[C@@H]3COP(=O)(O)O[C@H]2[C@H]1O [c-di-AMP]
- Kd (CabPB): 1.2 ± 0.2 µM
- Kd (CabPA): 7.8 ± 0.3 µM

— paper PMC5003771 (Molecular microbiology, 2015)
